Laboratory results published in PubChem BioAssay (NCI).
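Method: 48-hour compound exposure of cells in 96-well plates, five concentrations, linear interpolation of endpoints. The concentration for full growth arrest is given as TGI.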

Key:
Test in all cases: growth of human tumour cells (NCI), 48 h
RXF 393 renal = test system: RXF 393 renal
HOP-92 NSCLC = test system: HOP-92 NSCLC
SK-MEL-2 melanoma = test system: SK-MEL-2 melanoma
A549 NSCLC = test system: A549 NSCLC
SF-539 CNS = test system: SF-539 CNS
OVCAR-3 ovarian = test system: OVCAR-3 ovarian
K-562 leukemia = test system: K-562 leukemia
NCI/ADR-RES ovarian = test system: NCI/ADR-RES ovarian
786-0 renal = test system: 786-0 renal
HCC-2998 colon = test system: HCC-2998 colon

Row | Compound | TGI (RXF 393 renal) [µM] | TGI (HOP-92 NSCLC) [µM] | TGI (SK-MEL-2 melanoma) [µM] | TGI (A549 NSCLC) [µM] | TGI (SF-539 CNS) [µM] | TGI (OVCAR-3 ovarian) [µM] | TGI (K-562 leukemia) [µM] | TGI (NCI/ADR-RES ovarian) [µM] | TGI (786-0 renal) [µM] | TGI (HCC-2998 colon) [µM]
1 | CC(C)(C)OC(=O)N1Cc2cc(O)ccc2C[C@H]1C(=O)O | > 100 | > 100 | > 100 | > 100 | > 100 | > 100 | > 100 | > 100 | > 100 | > 100
2 | O=C(CCc1ccc(O)c(O)c1)NCCc1ccc(O)c(O)c1 | > 100 | > 100 | > 100 | > 100 | > 100 | > 100 | > 100 | > 100 | 33.8 | > 100
3 | CCOC(=O)C1C[C@H]2CO[C@H](c3ccccc3)N2C1=O (stereo not given in full) | > 100 | > 100 | > 100 | > 100 | > 100 | > 100 | > 100 | > 100 | > 100 | > 100
